# Measured values taken from ChEMBL document CHEMBL1255530, “3D-QSAR CoMFA study of benzoxazepine derivatives as mGluR5 positive allosteric modulators” (Bioorg Med Chem Lett, 2010).
# Target: Metabotropic glutamate receptor 5 (Rattus norvegicus, UniProt P31424)
# Test: Positive allosteric modulation of rat mGluR5 expressed in HEK293 cells
# Sequence of Metabotropic glutamate receptor 5 (P31424 whole entry): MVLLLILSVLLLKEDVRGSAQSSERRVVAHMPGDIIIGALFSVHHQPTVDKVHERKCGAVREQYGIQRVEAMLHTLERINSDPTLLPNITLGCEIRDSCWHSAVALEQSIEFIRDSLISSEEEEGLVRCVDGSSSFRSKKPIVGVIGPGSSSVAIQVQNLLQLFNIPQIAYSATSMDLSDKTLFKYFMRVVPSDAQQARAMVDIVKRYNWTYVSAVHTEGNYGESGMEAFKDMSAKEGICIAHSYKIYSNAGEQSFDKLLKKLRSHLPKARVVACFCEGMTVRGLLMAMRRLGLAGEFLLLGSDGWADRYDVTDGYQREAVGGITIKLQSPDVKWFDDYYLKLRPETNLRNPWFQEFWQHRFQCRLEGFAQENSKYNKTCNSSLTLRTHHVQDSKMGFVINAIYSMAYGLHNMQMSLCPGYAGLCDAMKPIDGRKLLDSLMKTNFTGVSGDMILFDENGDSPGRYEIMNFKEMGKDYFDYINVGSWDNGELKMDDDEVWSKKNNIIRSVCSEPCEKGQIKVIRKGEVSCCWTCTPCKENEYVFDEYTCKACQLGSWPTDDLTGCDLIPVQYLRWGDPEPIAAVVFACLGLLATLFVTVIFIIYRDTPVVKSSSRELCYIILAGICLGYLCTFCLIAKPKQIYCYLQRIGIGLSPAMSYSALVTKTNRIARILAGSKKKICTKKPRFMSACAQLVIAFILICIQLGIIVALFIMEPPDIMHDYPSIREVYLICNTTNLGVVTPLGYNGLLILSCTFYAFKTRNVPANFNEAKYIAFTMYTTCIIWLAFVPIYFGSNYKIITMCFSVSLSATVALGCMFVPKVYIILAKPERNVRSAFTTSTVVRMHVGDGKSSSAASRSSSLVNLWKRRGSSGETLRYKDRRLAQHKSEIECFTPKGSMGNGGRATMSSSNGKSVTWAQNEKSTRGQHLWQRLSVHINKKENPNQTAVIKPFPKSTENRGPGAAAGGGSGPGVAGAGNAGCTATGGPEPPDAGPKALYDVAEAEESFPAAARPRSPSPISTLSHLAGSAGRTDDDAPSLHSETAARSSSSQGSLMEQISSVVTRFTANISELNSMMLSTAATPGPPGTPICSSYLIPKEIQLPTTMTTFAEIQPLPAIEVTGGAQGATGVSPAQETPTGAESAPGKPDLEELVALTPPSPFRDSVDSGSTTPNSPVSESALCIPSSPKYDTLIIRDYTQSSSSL
row,Structure (SMILES),EC50
1,CCCCSc1nnc2c(n1)O[C@@H](CC)N(C(C)=O)c1ccccc1-2,3980 nM
2,CCSc1nnc2c(n1)O[C@@H](c1ccc(Cl)cc1)N(C(C)=O)c1ccccc1-2,676 nM
3,CCSc1nnc2c(n1)O[C@@H](c1ccc(OC(C)=O)cc1)N(C(C)=O)c1ccccc1-2,813 nM
4,CCSc1nnc2c(n1)O[C@@H](c1cccc(C)c1OC(C)=O)N(C(C)=O)c1ccccc1-2,2820 nM
5,CCSc1nnc2c(n1)O[C@@H](c1ccc(N(C)C)cc1)N(C(C)=O)c1ccccc1-2,4270 nM
6,CCSc1nnc2c(n1)O[C@@H](c1cc(Br)ccc1OC)N(C(=O)CC)c1ccccc1-2,813 nM
7,CCSc1nnc2c(n1)O[C@@H](c1ccccn1)N(C(=O)CC)c1ccccc1-2,4370 nM
8,C=CCSc1nnc2c(n1)O[C@@H](c1ccccn1)N(C(=O)CC)c1ccccc1-2,437 nM
9,CCSc1nnc2c(n1)O[C@@H](/C=C/c1ccco1)N(C(C)=O)c1ccccc1-2,1170 nM
10,C=CCSc1nnc2c(n1)O[C@@H](c1ccc(OC)c(OC)c1OC)N(C(C)=O)c1ccccc1-2,7760 nM
11,CCSc1nnc2c(n1)O[C@@H](c1cc(Br)ccc1OC)N(C(C)=O)c1ccccc1-2,120 nM
12,CCCC(=O)N1c2ccccc2-c2nnc(SCC)nc2O[C@H]1c1cccs1,263 nM
13,CCOc1cc([C@@H]2Oc3nc(SC)nnc3-c3ccccc3N2C(=O)CC)ccc1OC(=O)CC,2820 nM
14,C=CCSc1nnc2c(n1)O[C@@H](c1sccc1C)N(C(C)=O)c1ccccc1-2,457 nM
15,CSc1nnc2c(n1)O[C@@H](c1cccc(OCc3ccccc3)c1)N(C(C)=O)c1ccccc1-2,3310 nM
16,CCCSc1nnc2c(n1)O[C@@H](CC)N(C(C)=O)c1ccccc1-2,6760 nM
17,CCSc1nnc2c(n1)O[C@@H](C)N(C(C)=O)c1ccccc1-2,13800 nM
18,COc1ccc([C@@H]2Oc3nc(SC)nnc3-c3ccccc3N2C(C)=O)cc1,2750 nM
19,CSc1nnc2c(n1)O[C@@H](c1ccccc1F)N(C(C)=O)c1ccccc1-2,3470 nM
20,CCSc1nnc2c(n1)O[C@@H](c1ccc(OC)c(Br)c1)N(C(C)=O)c1ccccc1-2,955 nM
21,CCSc1nnc2c(n1)O[C@@H](c1ccc(OC)cc1OC)N(C(C)=O)c1ccccc1-2,490 nM
22,CCSc1nnc2c(n1)O[C@@H](c1ccc(OCc3ccccc3)cc1)N(C(C)=O)c1ccccc1-2,6030 nM
23,C=CCSc1nnc2c(n1)O[C@@H](c1cccnc1)N(C(C)=O)c1ccccc1-2,832 nM
24,CCOc1cc([C@@H]2Oc3nc(SCC)nnc3-c3ccccc3N2C(C)=O)ccc1OC(C)=O,1950 nM
25,CCSc1nnc2c(n1)O[C@@H](c1cc(Cl)ccc1OC(C)=O)N(C(C)=O)c1ccccc1-2,1580 nM

# Continued, values first:
row,EC50,Structure (SMILES)
1,1020 nM,CCCC(=O)N1c2ccccc2-c2nnc(SC)nc2O[C@H]1c1cccc(OC)c1
2,1950 nM,CCC(=O)N1c2ccccc2-c2nnc(SC)nc2O[C@H]1c1ccc(C)s1
3,7410 nM,CCC(=O)N1c2ccccc2-c2nnc(SC)nc2O[C@H]1c1ccccn1
4,3630 nM,CCC(=O)Oc1ccc([C@@H]2Oc3nc(SC)nnc3-c3ccccc3N2C(=O)CC)cc1
5,1230 nM,CCSc1nnc2c(n1)O[C@@H](c1ccc(SC)cc1)N(C(=O)CC)c1ccccc1-2
6,57.5 nM,C=CCSc1nnc2c(n1)O[C@@H](c1cccs1)N(C(=O)CC)c1ccccc1-2
7,2340 nM,CCC(=O)N1c2ccccc2-c2nnc(SC)nc2O[C@H]1c1cccc(C)n1
8,5750 nM,CCC(=O)Oc1ccc(Br)c([C@@H]2Oc3nc(SC)nnc3-c3ccccc3N2C(=O)CC)c1
9,309 nM,CCSc1nnc2c(n1)O[C@@H](c1cccs1)N(C(=O)CC)c1ccccc1-2
10,813 nM,CCSc1nnc2c(n1)O[C@@H](c1ccco1)N(C(=O)CC)c1ccccc1-2
11,2190 nM,CCOC(=O)COc1ccccc1[C@@H]1Oc2nc(SC)nnc2-c2ccccc2N1C(=O)CC
12,3720 nM,CCCCOc1ccccc1[C@@H]1Oc2nc(SC)nnc2-c2ccccc2N1C(=O)CC
13,5250 nM,CCC(=O)N1c2ccccc2-c2nnc(SC)nc2O[C@H]1c1cc2c(cc1Cl)OCO2
14,646 nM,CCCSc1nnc2c(n1)O[C@@H](c1ccccc1F)N(C(=O)CC)c1ccccc1-2
15,3890 nM,CCCC(=O)N1c2ccccc2-c2nnc(SC)nc2O[C@H]1c1cccnc1
16,1860 nM,CCCC(=O)N1c2ccccc2-c2nnc(SC)nc2O[C@H]1c1sccc1C
17,331 nM,C=CCSc1nnc2c(n1)O[C@@H](c1ccc(C)s1)N(C(C)=O)c1ccccc1-2
18,1510 nM,CSc1nnc2c(n1)O[C@@H](c1ccc(Br)cc1)N(C(C)=O)c1ccccc1-2
19,1230 nM,CCOc1ccccc1[C@@H]1Oc2nc(SC)nnc2-c2ccccc2N1C(C)=O
20,2090 nM,CSc1nnc2c(n1)O[C@@H](c1ccc(Cl)cc1)N(C(C)=O)c1ccccc1-2
21,1260 nM,CCSc1nnc2c(n1)O[C@@H](c1cccn1C)N(C(=O)CC)c1ccccc1-2
22,871 nM,CCCC(=O)N1c2ccccc2-c2nnc(SC)nc2O[C@H]1c1cccs1
23,2240 nM,CCCC(=O)N1c2ccccc2-c2nnc(SC)nc2O[C@H]1c1ccc(C)o1
